Results reported in the supplement of paper PMC10307832.

Columns and labels:
Experiment in all cases: relative viability (nuclei count vs DMSO), 5 days (fraction); higher = more cells survive
Vemurafenib + OSI-027 = compound: CCCS(=O)(=O)Nc1ccc(F)c(C(=O)c2c[nH]c3ncc(-c4ccc(Cl)cc4)cc23)c1F [Vemurafenib] + COc1cccc2cc(-c3nc([C@H]4CC[C@H](C(=O)O)CC4)n4ncnc(N)c34)[nH]c12 [OSI-027] (partner 0.5 µM)
Method in brief: (§1)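 Cells from lung cancer lines were seeded into 1536-well plates and, one day later, dosed by pin tool. Treatments were either a single drug or a fixed dose of an anchor drug with five library-drug doses (not always all listed) in √10 steps. After 5 days, nuclei were stained in a one-step fixation (final 0.05% Triton X-100, 1% formaldehyde, 1 ug/ml Hoechst) and counted on 4× images, and relative viability is the treated-to-vehicle nuclei ratio, as the median of duplicate plates.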

OSI-027 + Pemetrexed = compound: COc1cccc2cc(-c3nc([C@H]4CC[C@H](C(=O)O)CC4)n4ncnc(N)c34)[nH]c12 [OSI-027] + Nc1nc2[nH]cc(CCc3ccc(C(=O)N[C@@H](CCC(=O)O)C(=O)O)cc3)c2c(=O)[nH]1 [Pemetrexed] (partner 0.2 µM)
Method in brief: as §1

Alpelisib + Trametinib = compound: Cc1nc(NC(=O)N2CCC[C@H]2C(N)=O)sc1-c1ccnc(C(C)(C)C(F)(F)F)c1 [Alpelisib] + CC(=O)Nc1cccc(-n2c(=O)n(C3CC3)c(=O)c3c(Nc4ccc(I)cc4F)n(C)c(=O)c(C)c32)c1 [Trametinib] (partner 0.02 µM)
Method in brief: as §1

Alpelisib + Foretinib = compound: Cc1nc(NC(=O)N2CCC[C@H]2C(N)=O)sc1-c1ccnc(C(C)(C)C(F)(F)F)c1 [Alpelisib] + COc1cc2c(Oc3ccc(NC(=O)C4(C(=O)Nc5ccc(F)cc5)CC4)cc3F)ccnc2cc1OCCCN1CCOCC1 [Foretinib] (partner 0.25 µM)
Method in brief: as §1

| Cell Line | relative viability (Vemurafenib + OSI-027; first compound 0.03162 µM) | relative viability (Vemurafenib + OSI-027; first compound 0.1 µM) | relative viability (Vemurafenib + OSI-027; first compound 1 µM) | relative viability (OSI-027 + Pemetrexed; first compound 0.01 µM) | relative viability (OSI-027 + Pemetrexed; first compound 0.03162 µM) | relative viability (OSI-027 + Pemetrexed; first compound 0.1 µM) | relative viability (OSI-027 + Pemetrexed; first compound 0.3162 µM) | relative viability (OSI-027 + Pemetrexed; first compound 1 µM) | relative viability (Alpelisib + Trametinib; first compound 0.04 µM) | relative viability (Alpelisib + Trametinib; first compound 0.1265 µM) | relative viability (Alpelisib + Trametinib; first compound 0.4 µM) | relative viability (Alpelisib + Trametinib; first compound 1.265 µM) | relative viability (Alpelisib + Trametinib; first compound 4 µM) | relative viability (Vemurafenib + OSI-027; first compound 0.3162 µM) | relative viability (Alpelisib + Foretinib; first compound 0.04 µM) | relative viability (Alpelisib + Foretinib; first compound 0.1265 µM) | relative viability (Alpelisib + Foretinib; first compound 0.4 µM) | relative viability (Alpelisib + Foretinib; first compound 1.265 µM) | relative viability (Alpelisib + Foretinib; first compound 4 µM) |
| --- | --- | --- | --- | --- | --- | --- | --- | --- | --- | --- | --- | --- | --- | --- | --- | --- | --- | --- | --- |
| HCC-44 | 0.419 | 0.361 | 0.426 | 0.668 | 0.649 | 0.708 | 0.658 | 0.669 | 1.05 | 1.12 | 1.03 | 0.849 | 0.81 | – | – | – | – | – | – |
| HCC-78 | 0.366 | 0.322 | 0.398 | 0.954 | 0.918 | 0.911 | 0.913 | 0.887 | 0.578 | 0.779 | 0.816 | 0.458 | 0.53 | 0.649 | 0.495 | 0.426 | 0.493 | 0.353 | 0.366 |
| HCC-366 | 0.886 | 0.843 | 0.418 | 0.18 | 0.162 | 0.175 | 0.186 | 0.206 | 0.337 | 0.289 | 0.233 | 0.138 | 0.13 | 0.674 | 0.887 | 0.939 | 0.868 | 0.861 | 0.349 |
| HCC-827 | 0.754 | – | 0.704 | 0.259 | 0.23 | 0.276 | 0.264 | 0.242 | 0.547 | 0.504 | 0.492 | 0.401 | 0.33 | 0.766 | 1 | 1.05 | 0.968 | 0.964 | 0.746 |
| HOP-62 | 0.702 | 0.938 | 0.751 | 0.371 | 0.307 | 0.341 | 0.331 | 0.261 | 0.353 | 0.376 | 0.434 | 0.384 | 0.384 | 0.678 | 1.08 | 1.15 | 1.23 | 1.02 | 0.978 |
| IA-LM | – | – | – | – | – | – | – | – | – | – | – | – | – | – | 1.03 | 1.31 | 1.11 | 1.12 | 1.13 |
| LC-2-ad | 0.753 | 0.629 | 0.747 | 0.279 | 0.239 | 0.273 | 0.283 | 0.271 | 0.902 | 0.93 | 0.968 | 0.764 | 0.738 | – | 0.863 | 0.908 | 0.966 | 0.601 | 0.576 |
| LCLC-97TM1 | 0.49 | 0.612 | 0.43 | 0.178 | 0.207 | 0.147 | 0.186 | 0.15 | 0.194 | 0.167 | 0.165 | 0.133 | 0.159 | 0.713 | 0.879 | 0.913 | 0.883 | 0.73 | 0.449 |
| LCLC-103H | 0.41 | 0.474 | 0.443 | 0.481 | 0.47 | 0.481 | 0.446 | 0.52 | 0.669 | 0.693 | 0.646 | 0.567 | 0.475 | 0.39 | 0.67 | 0.758 | 0.652 | 0.567 | 0.471 |
| LK-2 | 0.194 | 0.21 | 0.158 | 0.238 | – | 0.237 | 0.174 | 0.158 | 0.633 | 0.829 | 0.738 | 0.384 | 0.365 | 0.228 | 1.07 | 1.19 | 1.28 | 0.906 | 0.932 |
| LOU-NH91 | 0.72 | – | 0.726 | 0.387 | 0.368 | 0.493 | 0.508 | 0.63 | 0.773 | 0.686 | 0.696 | 0.649 | 0.591 | – | 0.933 | 0.853 | 0.81 | 0.738 | 0.754 |
| NCI-H522 | 0.778 | 0.635 | 0.697 | 1.04 | 0.956 | 0.717 | 0.858 | 0.664 | 0.673 | 0.756 | 0.683 | 0.681 | 0.542 | 0.638 | – | – | – | – | – |
| NCI-H727 | 0.571 | 0.561 | 0.526 | – | – | – | – | – | 0.349 | 0.387 | 0.383 | 0.301 | 0.308 | 1.08 | 0.897 | 0.772 | 0.771 | 0.645 | 0.676 |
| NCI-H1299 | – | – | – | – | – | – | – | – | – | – | – | – | – | – | 1.12 | 1.12 | 1.19 | 0.978 | 1.12 |
| NCI-H1563 | 0.693 | 0.757 | 0.723 | 0.754 | 0.719 | 0.72 | 0.755 | 0.543 | – | – | – | – | – | 0.734 | 0.861 | 0.95 | 0.909 | 0.713 | 0.748 |
| NCI-H1623 | 0.405 | – | 0.419 | – | – | – | – | – | – | – | – | – | – | 0.521 | 0.833 | 0.744 | 0.845 | 0.54 | 0.494 |
| NCI-H1648 | 0.261 | – | 0.259 | 0.849 | 0.825 | – | 0.656 | 0.701 | 0.489 | 0.496 | 0.472 | 0.296 | 0.245 | 0.335 | – | – | – | – | – |
| NCI-H1703 | – | – | – | – | – | – | – | – | – | – | – | – | – | – | 0.295 | 0.362 | 0.381 | 0.271 | 0.303 |
| NCI-H1792 | 0.705 | 0.616 | 0.704 | 0.569 | 0.852 | 0.757 | 0.635 | 0.214 | 0.271 | 0.383 | 0.467 | 0.324 | 0.314 | – | – | – | – | – | – |
